Structures are written as SMILES.

Here are results for 39 compounds from patent US7939521B2, “2-arylpropionic acid derivatives and pharmaceutical compositions containing them” (DompePHA.R.MA S.p.A., priority 2004, dated 2011).

In experiment [1] the test system is C5a induced human PMN chemotaxis. The experiment can be described thus: C5a induced chemotaxis of human PMNs (microchamber assay). It is filed as cell-based. Particulars: for inhibitory activity on C5a induced PMN chemotaxis at high drug concentration: c=10^−6M; for C5a (10^−6M): drug concentration 10^−6M, PMN chemotaxis, Table 1, n.a. = not active.
Experiment [2] has as its system CXCL8 induced human PMN chemotaxis. The experiment can be described thus: IL-8 (CXCL8) induced PMN chemotaxis. Particulars: drug concentration 10^−8M, Table 1. It is filed as cell-based.
Experiment [3] concerns C5a induced human PMN chemotaxis. Particulars: previously reported; cited from earlier work.
Experiment [4] has the same test system. The experiment is described as follows: C5a induced chemotaxis of human PMNs (microchamber assay). In kind it is cell-based. Particulars: for inhibitory activity on C5a: compounds lacking the additional hydrogen bond acceptor group; for inhibition at 0.1 µM / inhibition at 0.01 µM: Homo sapiens, read-out: % inhibition C5a induced PMN migration; for inhibition at 0.1 µM: drug concentration: 10^−7 M (footnote a); for inhibition at 0.01 µM: drug concentration: 10^−8 M (footnote b). The procedure: The compounds of the invention of formula (I) were evaluated in vitro for their ability to inhibit chemotaxis of polymorphonucleate leukocytes (hereinafter referred to as PMNs) and monocytes induced by the fractions of the complement C5a and C5a-desArg. For this purpose, to isolate the PMNs from heparinized human blood, taken from healthy adult volunteers, mononucleates were removed by means of sedimentation on dextran (according to the procedure disclosed by W. J. Ming et al., J. Immunol., 138, 1469, 1987) and red blood cells by a hypotonic solution. The cell vitality was calculated by exclusion with Trypan blue, whilst the ratio of the circulating polymorphonucleates was estimated on the cytocentrifugate after staining with Diff Quick.
Human recombinant fractions C5a and C5a-desArg (Sigma) were used as stimulating agents in the chemotaxis experiments, giving practically identical results.
The lyophilized C5a was dissolved in a volume of HBSS containing 0.2% bovin serum albumin BSA so thus to obtain a stock solution having a concentration of 10^−5 M to be diluted in HBSS to a concentration of 10^−9 M, for the chemotaxis assays.
In the chemotaxis experiments, the PMNs were incubated with the compounds of the invention of formula (I) for 15′ at 37° C. in an atmosphere containing 5% CO2. The chemotactic activity of the C5a was evaluated on human circulating polymorphonucleates (PMNs) resuspended in HBSS at a concentration of 1.5×10^6 PMNs per mL.
During the chemotaxis assay (according to W. Falket et al., J. Immunol. Methods, 33, 239, 1980) PVP-free filters with a porosity of 5 μm and microchambers suitable for replication were used.
The compounds of the invention in formula (I) were evaluated at a concentration ranging between 10^−7 and 10^−10 M; for this purpose they were added, at the same concentration, both to the lower pores and the upper pores of the microchamber. The wells in the lower part contain the solution of C5a or the simple carrier, those in the upper part contain the suspension of PMNs.
Inhibition of C5a-induced chemotactic activity by the individual compounds of the invention of formula (I) was evaluated by incubating the microchamber for the chemotaxis for 60 min at 37° C. in an atmosphere containing 5% CO2.
By way of example, the inhibition data of the chemotaxis of PMN (concentration range between 10^−7 and 10^−8 M) of some representative compounds of the invention are reported in Table 2.

With `C[C@@H](C(N)=O)c1cccc(C(=O)c2ccccc2)c1` [(R)-2-(3-benzoylphenyl)propionamide], in experiment [1], the “inhibitory activity on C5a induced PMN chemotaxis at high drug concentration” value is on record as “moderate inhibitory activity” and the “C5a (10^−6M)” value is 30 ± 2. The “IL-8 (10^−8M)” value in experiment [2] is on record as 37 ± 7. In addition, in experiment [3], the “activity on the C5a induced PMN chemotaxis” value is listed as “negligible activity”.

Consider `CC(C)c1cccc([C@@H](C)C(N)=O)c1` [(R)-2-(3-isopropylphenyl)propionamide, reference compound], for which, in experiment [4], the “inhibitory activity on C5a” value is recorded as “do not exhibit any inhibitory activity”. Also, in experiment [2], the “IL-8 (10^−8M)” value is 60 ± 5.

Consider `CC(C)Cc1ccc([C@@H](C)C(N)=O)cc1` [(R)-2-(4-isobutylphenyl)propionamide, reference compound], for which, in experiment [4], the “inhibitory activity on C5a” value is listed as “do not exhibit any inhibitory activity”. Besides, the “IL-8 (10^−8M)” value in experiment [2] worked out at 57 ± 12.

Consider `CC(C)C(=O)c1cccc([C@@H](C)C(N)=O)c1` [Example 1, (R)-2-[3-(isobutyryl)phenyl]propionamide], for which the inhibition at 0.1 µM in experiment [4] was found to be 50 ± 7%.

Regarding `C[C@@H](C(N)=O)c1cccc(C(=O)C2CCCC2)c1` [Example 2, (R)-2-[3-(cyclopentanecarbonyl)phenyl]propionamide], the inhibition at 0.1 µM in experiment [4] was determined as 59 ± 16%.

For `C[C@@H](C(N)=O)c1cccc(C(=O)c2ccco2)c1` [Example 3], in experiment [4], the inhibition at 0.1 µM worked out at 65 ± 6%.

Take `C[C@@H](C(N)=O)c1cccc(C(=O)c2cc3ccccc3o2)c1` [Example 4, (R)-2-[3-(2-benzofuran-2-carbonyl)phenyl]propionamide]: the inhibition at 0.01 µM in experiment [4] turned out to be 55 ± 7%.

Turning to `C[C@@H](C(N)=O)c1cccc(C(=O)c2nccs2)c1` [Example 5, (R)-2-[3-(thiazole-2-ylcarbonyl)phenyl]propionamide], the inhibition at 0.01 µM in experiment [4] was 31 ± 7%.

On to `C[C@@H](C(N)=O)c1cccc(C(=O)c2ncco2)c1` [Example 6, (R)-2-[3-(1,3-oxazol-2-ylcarbonyl)phenyl]propionamide], for which, in experiment [4], the inhibition at 0.01 µM amounted to 26 ± 6%.

Regarding `C[C@@H](C(N)=O)c1cccc(C(=O)Nc2c(Cl)cccc2Cl)c1` [Example 7, 3-((R)-1-carbamoylethyl)-N-(2,6-dichlorophenyl)benzamide], the inhibition at 0.1 µM in experiment [4] amounted to 57 ± 8%.

In the case of `Cc1cccc(C)c1NC(=O)c1cccc([C@@H](C)C(N)=O)c1` [Example 8, 3-((R)-1-carbamoylethyl)-N-(2,6-dimethylphenyl)benzamide], in experiment [4], the inhibition at 0.1 µM was found to be 65 ± 10%.

As to `C[C@@H](C(N)=O)c1cccc(C(=O)Nc2ncccc2Cl)c1` [Example 9, 3-((R)-1-carbamoylethyl)-N-(3-chloropyridin-2-yl)benzamide], in experiment [4], the inhibition at 0.1 µM came to 40 ± 2%.

`COc1ccccc1Oc1cccc([C@@H](C)C(N)=O)c1` [Example 10, (R)-2-[3-(2-methoxyphenoxy)phenyl]propionamide]: the inhibition at 0.01 µM in experiment [4] was determined as 55 ± 6%.

On to `C[C@@H](C(N)=O)c1cccc(Nc2ccccc2Cl)c1` [Example 11, (R)-2-[3-(2-chlorophenylamino)phenyl]propionamide], for which the inhibition at 0.1 µM in experiment [4] stood at 42 ± 5%.

Turning to `COc1ccccc1Nc1cccc([C@@H](C)C(N)=O)c1` [Example 12, (R)-2-[3-(2-methoxyphenylamino)phenyl]propionamide], in experiment [4], the inhibition at 0.1 µM stood at 60 ± 8%.

For `C[C@@H](C(N)=O)c1cccc(Nc2ccccn2)c1` [Example 13, (R)-2-[3-(pyridin-2-ylamino)phenyl]propionamide], the inhibition at 0.1 µM in experiment [4] is 38 ± 3%.

As to `C[C@@H](C(N)=O)c1cccc(-c2ncco2)c1` [Example 14], in experiment [4], the inhibition at 0.1 µM was 63 ± 9%.

As for `C[C@@H](C(N)=O)c1cccc(-c2ccco2)c1` [Example 15], the inhibition at 0.1 µM in experiment [4] was 41 ± 7%.

For the compound `C[C@@H](C(N)=O)c1ccc2c(c1)NC(=O)CC2` [Example 16, (R)-2-(oxo-1,2,3,4-tetrahydroquinolin-7-yl)propionamide], the inhibition at 0.01 µM in experiment [4] came to 45 ± 10%.

For `C[C@@H](C(N)=O)c1cccc(S(=O)(=O)c2ccccc2)c1` [Example 17, (R)-2-(3-benzenesulfonylphenyl)propionamide], the inhibition at 0.1 µM in experiment [4] turned out to be 54 ± 7%.

For `CC(=O)Nc1cccc(C(C)C(N)=O)c1` (stereo not drawn) [Example 18, 2-(3-acetylamino)phenyl propionamide], in experiment [4], the inhibition at 0.1 µM came to 83 ± 2%.

Turning to `CC(C(N)=O)c1cccc(NC(=O)c2ccccc2)c1` (stereo not drawn) [Example 19, 2-(3-benzoylamino)phenyl propionamide], in experiment [4], the inhibition at 0.1 µM was found to be 34 ± 11%.

Take `C[C@@H](C(=O)NS(C)(=O)=O)c1cccc(C(=O)C2CCCC2)c1` [Example 20, N—[(R)-2-(3-cyclopentanecarbonylphenyl)propionyl]methanesulfonamide]: in experiment [4], the inhibition at 0.1 µM amounted to 22 ± 2%.

As for `C[C@@H](C(=O)NS(C)(=O)=O)c1cccc(C(=O)c2ccco2)c1` [Example 21], in experiment [4], the inhibition at 0.01 µM is 61 ± 15%.

Turning to `Cc1ccc(C(=O)c2cccc([C@@H](C)C(=O)NS(C)(=O)=O)c2)o1` [Example 22], in experiment [4], the inhibition at 0.01 µM is 53 ± 6%.

As for `C[C@@H](C(=O)NS(C)(=O)=O)c1cccc(C(=O)c2cccs2)c1` [Example 23], in experiment [4], the inhibition at 0.1 µM stood at 37 ± 11%.

In the case of `C[C@@H](C(=O)NS(C)(=O)=O)c1cccc(C(=O)c2cc3ccccc3o2)c1` [Example 24], the “% inhibition C5a induced PMN migration” value in experiment [4] (drug concentration not marked) came out at 53 ± 5%.

Turning to `C[C@@H](C(=O)NS(C)(=O)=O)c1cccc(C(=O)c2ncco2)c1` [Example 25], the inhibition at 0.1 µM in experiment [4] was found to be 38 ± 8%.

Take `C[C@@H](C(=O)Nc1ccccn1)c1cccc(C(=O)c2ccco2)c1` [Example 26, (R)-2-[3-(furan-2-carbonyl)phenyl]-N-pyrid-2-yl propionamide]: in experiment [4], the inhibition at 0.01 µM was 45 ± 9%.

Take `C[C@@H](C(=O)Nc1nccs1)c1cccc(C(=O)c2ccco2)c1` [Example 27, (R)-2-[3-(furan-2-carbonyl)phenyl]-N-(2H-thiazol-2-yl)propionamide]: in experiment [4], the inhibition at 0.01 µM stood at 60 ± 5%.

Consider `C[C@@H](C(=O)Nc1nc(C(F)(F)F)cs1)c1cccc(C(=O)c2ccco2)c1` [Example 28, (R)-2-[3-(furan-2-carbonyl)phenyl]-N-(4-trifluoromethyl-2H-thiazol-2-yl)propionamide], for which, in experiment [4], the inhibition at 0.01 µM came out at 49 ± 9%.

In the case of `C[C@@H](C(=O)Nc1nc(C(F)(F)F)cs1)c1cccc(C(=O)c2cc3ccccc3o2)c1` [Example 29, (R)-2-[3-(benzofuran-2-carbonyl)phenyl]-N-(4-trifluoromethyl-2H-thiazol-2-yl)propionamide], the inhibition at 0.1 µM in experiment [4] amounted to 40 ± 12%.

Consider `C[C@@H](C(=O)Nc1ccccn1)c1cccc(C(=O)C2CCCC2)c1` [Example 30, (R)-2-(3-cyclopentanecarbonylphenyl)-N-pyrid-2-ylpropionamide], for which the inhibition at 0.01 µM in experiment [4] stood at 51 ± 5%.

With `C[C@@H](C(=O)NO)c1cccc(C(=O)c2ccco2)c1` [Example 31, (R)-2-[3-(furan-2-carbonyl)phenyl]-N-hydroxypropionamide], the inhibition at 0.01 µM in experiment [4] is 70 ± 5%.

As to `C[C@@H](C(=O)NO)c1cccc(C(=O)c2nccs2)c1` [Example 32, (R)-2-[3-(thiazole-2-carbonyl)phenyl]-N-hydroxypropionamide], the inhibition at 0.01 µM in experiment [4] was 30 ± 2%.

Regarding `CC(NC(=O)[C@H](C)c1cccc(C(=O)c2ccco2)c1)C(=O)O` (stereo partly drawn) [Example 33, 2-{(R)-2-[3-(furan-2-carbonyl)phenyl]propionylamino}propionic acid], in experiment [4], the inhibition at 0.1 µM was determined as 40 ± 5%.

As for `C[C@@H](C(=O)NCC(=O)O)c1cccc(C(=O)c2ccco2)c1` [Example 34], the inhibition at 0.1 µM in experiment [4] came to 51 ± 7%.

Consider `C[C@@H](C(=O)NS(C)(=O)=O)c1cccc(C(=O)c2ccccc2)c1` [N-[(R)-2-(3-benzoylphenyl)propionyl]methanesulfonamide], for which, in experiment [1], the “inhibitory activity on C5a induced PMN chemotaxis at high drug concentration” value was “moderate inhibitory activity” and the “C5a (10^−6M)” value was determined as 20 ± 5. In addition, the “IL-8 (10^−8M)” value in experiment [2] stood at 38 ± 5. For the same compound, the “activity on the C5a induced PMN chemotaxis” value in experiment [3] is given as “negligible activity”.

In the case of `CC(C)Cc1ccc([C@@H](C)C(=O)NS(C)(=O)=O)cc1` [N-[(R)-2-(4-isobutylphenyl)propionyl]methanesulfonamide, reference compound], in experiment [4], the “inhibitory activity on C5a” value is on record as “do not exhibit any inhibitory activity”. Also, the “IL-8 (10^−8M)” value in experiment [2] was 65 ± 5.
